The target in data set [1] is T1, F. ignava NrdB (Grx::NrdB fusion protein, NrdBi) (Falseniella ignava, UniProt K1LAT4).
T1 construct: gene HMPREF9707_01368; full-length 496-residue fusion (Grx 4-61, ATP cone 84-169, NrdB core); E. coli BL21(DE3); dimer-tetramer equilibrium
Nature of the data set: glutaredoxin activity, NADPH consumption at […] nm (GSH reductase coupled). It is filed as biochemical. Conditions: 4 mM GSH, 0.4 mM NADPH, pH 8.0, room temperature; Grx domain; artificial substrate.

For data set [2], the target named is T2, F. ignava NrdB (Grx::NrdB fusion protein, NrdBi) (Falseniella ignava, UniProt K1LAT4, C15S).
T2 construct: gene HMPREF9707_01368; full-length 496-residue fusion (Grx 4-61, ATP cone 84-169, NrdB core); E. coli BL21(DE3); dimer-tetramer equilibrium
The description is as above. It is filed as biochemical. The following applies: 4 mM GSH, 0.4 mM NADPH, pH 8.0, room temperature; Grx domain, monothiol mechanism.

Data set [3] concerns the target T1, F. ignava NrdB (Grx::NrdB fusion protein, NrdBi). The data set can be described thus: biochemical. Type of data set: binding.
Data set [4] deals with T3, F. ignava RNR holoenzyme (NrdA + NrdB) (Falseniella ignava, UniProt K1LAT4).
T3 construct: gene HMPREF9707_01368; E. coli BL21(DE3); active complex alpha2beta2; with Ribonucleoside-diphosphate reductase subunit alpha
T3 sequence (K1LAT4 1-496): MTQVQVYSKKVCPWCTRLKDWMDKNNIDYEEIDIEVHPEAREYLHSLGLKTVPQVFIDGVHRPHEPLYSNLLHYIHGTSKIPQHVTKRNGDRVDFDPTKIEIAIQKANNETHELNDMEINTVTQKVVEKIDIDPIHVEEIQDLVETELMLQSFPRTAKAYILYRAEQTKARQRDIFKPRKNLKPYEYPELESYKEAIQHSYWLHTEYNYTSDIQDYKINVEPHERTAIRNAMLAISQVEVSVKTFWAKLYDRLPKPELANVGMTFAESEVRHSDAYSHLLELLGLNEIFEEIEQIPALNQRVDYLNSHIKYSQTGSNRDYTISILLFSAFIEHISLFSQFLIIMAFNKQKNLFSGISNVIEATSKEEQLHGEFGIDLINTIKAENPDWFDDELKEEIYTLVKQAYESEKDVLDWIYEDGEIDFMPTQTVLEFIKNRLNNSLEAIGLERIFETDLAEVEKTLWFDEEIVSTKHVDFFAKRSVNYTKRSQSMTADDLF
T3 sequence (K1MC37 1-567 partner): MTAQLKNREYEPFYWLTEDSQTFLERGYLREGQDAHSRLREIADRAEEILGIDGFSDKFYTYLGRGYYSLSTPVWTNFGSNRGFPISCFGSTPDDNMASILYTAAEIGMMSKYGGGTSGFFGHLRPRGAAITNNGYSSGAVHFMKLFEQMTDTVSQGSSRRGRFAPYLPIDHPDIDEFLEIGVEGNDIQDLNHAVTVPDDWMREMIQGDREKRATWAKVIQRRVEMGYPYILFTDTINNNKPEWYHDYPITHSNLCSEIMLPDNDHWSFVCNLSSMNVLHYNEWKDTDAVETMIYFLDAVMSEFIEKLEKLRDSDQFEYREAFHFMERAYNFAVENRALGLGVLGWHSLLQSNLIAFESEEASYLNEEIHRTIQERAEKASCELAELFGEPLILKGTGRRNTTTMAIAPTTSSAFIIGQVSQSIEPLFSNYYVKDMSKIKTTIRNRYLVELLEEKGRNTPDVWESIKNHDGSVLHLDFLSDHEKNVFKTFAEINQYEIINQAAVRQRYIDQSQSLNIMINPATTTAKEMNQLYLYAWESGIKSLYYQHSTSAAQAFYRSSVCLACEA
The data set can be described thus: RNR activity. Type of data set: biochemical. Conditions: weaker inhibition than dATP; ATP cone of NrdB.

Data set [5] has as its target T3, F. ignava RNR holoenzyme (NrdA + NrdB). Nature of the data set: RNR activity (dGDP formation by HPLC). It is filed as biochemical.
For data set [6], the target named is T4, heterologous F. ignava NrdA/L. blandensis NrdB holoenzyme (Leeuwenhoekiella blandensis, UniProt A3XHF9).
T4 construct: gene MED217_17135; mixed-species complex; F. ignava NrdA His6-tagged, E. coli; with Ribonucleoside-diphosphate reductase subunit alpha (Falseniella ignava CCUG 37419)
T4 sequence (A3XHF9 1-427): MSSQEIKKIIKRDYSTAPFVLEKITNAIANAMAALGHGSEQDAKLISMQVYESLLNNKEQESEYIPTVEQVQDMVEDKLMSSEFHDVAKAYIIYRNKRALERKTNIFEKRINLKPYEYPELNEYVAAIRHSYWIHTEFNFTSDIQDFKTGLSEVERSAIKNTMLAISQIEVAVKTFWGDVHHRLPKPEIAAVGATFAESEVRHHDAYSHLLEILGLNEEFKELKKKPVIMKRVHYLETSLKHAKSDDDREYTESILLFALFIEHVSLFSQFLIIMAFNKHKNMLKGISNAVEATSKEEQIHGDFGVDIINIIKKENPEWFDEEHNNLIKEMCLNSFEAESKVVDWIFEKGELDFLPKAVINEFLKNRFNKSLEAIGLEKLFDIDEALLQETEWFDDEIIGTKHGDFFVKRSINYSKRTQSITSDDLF
T4 sequence (K1MC37 1-567 partner): T3 sequence (K1MC37 1-567 partner)
The data set can be described thus: RNR activity (dGDP formation by HPLC). The following applies: GDP substrate, 2 mM dTTP, pH 8, room temperature; allosteric inhibition via L. blandensis NrdB ATP cone. It is filed as biochemical.

For data set [7], the target named is Facklamia ignava NrdBΔGrx (NrdB lacking the Grx domain) (Facklamia ignava). The data set can be described thus: GEMMA (gas-phase electrophoretic macromolecule analysis); NrdB deletion proteins analysed with and without 50 uM dATP (the text does not tell the two conditions apart); 20 mM ammonium acetate pH 7.8, 1 mM DTT, 0.005% Tween 20; step: dimers to tetramer.

Data set [8] deals with the molecule itself. Nature of the data set: SEC; Superdex 200 10/300, 0.1 mM dATP in the mobile phase; 50 mM KCl, 10 mM MgCl2, 0.1 mM DTT, 50 mM Tris-HCl pH 7.6, room temperature; single subunits 5 and 10 uM, mixture 10 and 20 uM of each.
Data set [9] concerns the molecule itself. The data set can be described thus: GEMMA (gas-phase electrophoretic macromolecule analysis); no effector; 0.05 mg/ml protein (0.025 mg/ml of each in mixtures), 20 mM ammonium acetate pH 7.8, 1 mM DTT, 0.005% Tween 20, room temperature.
Data set [10] deals with the molecule itself. Nature of the data set: SEC; Superdex 200 10/300, no effector; 50 mM KCl, 10 mM MgCl2, 0.1 mM DTT, 50 mM Tris-HCl pH 7.6, room temperature; NrdA 5 and 10 uM, NrdB 1.25-10 uM, mixture 10 uM of each. For orientation: In gel filtration, larger molecules generally elute earlier.

As a reminder, the Km is the concentration of substrate that gives half-maximal velocity. The term Kd denotes the constant that tells how readily two partners part at equilibrium. Low values mean tighter binding, high ones weaker binding. A word on the Ki: it is the dissociation constant of the complex between target and ligand, obtained from inhibition or displacement. What is called stoichiometry N is the number of molecules, sites or subunits per partner or assembly.

Regarding `OCCSSCCO` [2-hydroxyethyl disulfide], the Km came out at 600 ± 90 µM in data set [1] and 1300 ± 240 µM in data set [2].
The molecule `Nc1ncnc2c1ncn2[C@@H]1O[C@H](COP(=O)(O)OP(=O)(O)OP(=O)(O)O)[C@@H](O)[C@H]1O` [ATP] had a Kd in data set [3] of 6.8 µM.
Take `Nc1ncnc2c1ncn2[C@H]1C[C@H](O)[C@@H](COP(=O)(O)OP(=O)(O)O)O1` [dADP]: the RNR activity result in [4] is recorded as “Titration with dADP inhibited the WT enzyme activity (Fig. S2)”. The Kd in data set [3] amounted to 5.8 µM.
As for `Nc1ncnc2c1ncn2[C@H]1C[C@H](O)[C@@H](COP(=O)(O)OP(=O)(O)OP(=O)(O)O)O1` [dATP], the Ki is 1.3 ± 0.23 µM in data set [5] and about 70 µM in [6]. In data set [3], the Kd was 0.4 µM.
“Facklamia ignava NrdBΔGrx (NrdB lacking the Grx domain) (domain or fragment)” returned a stoichiometry N in data set [7] of 4.

B1: Facklamia ignava NrdB (Grx::ATP-cone::NrdB fusion protein, NrdBi) (enzyme, UniProt K1LAT4 1-496, looked up)
chain: T3 sequence (K1LAT4 1-496)
notes: NrdB (NrdBi) of Facklamia ignava CCUG 37419, 496 residues: Grx domain (residues 4-61), ATP cone (residues 84-169), then the NrdB proper; amplified from genomic DNA with primers from the start ATG to the stop codon; a thrombin cleavage site follows the His6 tag; Expressed with 0.5 mM MnSO4; holds a Mn(III)/Mn(IV) cofactor; Dimer or tetramer by condition; also called WT NrdB; source: E. coli …
In the case of B1, the “stoichiometry N” value amounted to 4 in [8] and 2 in data set [9].

B2: Facklamia ignava NrdA (NrdAi) (enzyme, UniProt K1MC37 1-567, looked up)
chain: T3 sequence (K1MC37 1-567 partner)
notes: NrdA (NrdAi), catalytic subunit of the class I ribonucleotide reductase of Facklamia ignava CCUG 37419; amplified from genomic DNA with primers from the start ATG to the stop codon; a thrombin cleavage site follows the His6 tag; the form rests on the printed primers (ATG to stop); source: E. coli BL21(DE3), pET-28a(+), purified (HisTrap nickel-Sepharose, Superdex 200, phenyl-Sepharose)
As for B2, the “stoichiometry N” value in data set [10] was found to be 2.

These data come from publication PMC6187632, “A glutaredoxin domain fused to the radical-generating subunit of ribonucleotide reductase (RNR) functions as an efficient RNR reductant” (The Journal of Biological Chemistry, 2018).
